# Measurements as given in paper PMC12467382, “Synthesis and Bioevaluation of Chalcones as Broad-Spectrum Antiviral Compounds Against Single-Stranded RNA Viruses” (Biomolecules, 2025).
# Columns and labels:
# [1] = tested on: PIV5-GFP; assay: RT-qPCR of PIV5 genes (F, HN, NP) in infected Hs27 cells; assay type: cell-based, parainfluenza virus 5; conditions: 10 µM before and after infection, MOI 10, normalized to actin
# Protocol: Hs27 cells cultured in 6-well dishes were collected in TRIzol® (Invitrogen) followed by RNA extraction. To produce cDNA, 1 μg of total RNA was used with TaqMan® Reverse Transcription Reagents (Applied Biosystems, Foster City, CA, USA) as described in the manufacturer’s instructions. Quantitative real-time PCR was performed using Bio-Rad CFX Connect Real-Time (Bio-Rad, Hercules, CA, USA) and Fast SYBR® FAST Green Master Mix (Applied Biosystems, Foster City, CA, USA). Relative gene expression was determined using CFX Manager Software (Bio-Rad, version 2.3) and the following primers (Table 1).
# To better understand how the chalcones were inhibiting virus growth, RT-qPCR was utilized to determine the effect of chalcone treatment on viral gene expression. Hs27 cells were treated with DMSO as a control or treated with 8o at a concentration of 10 µM. At 24 hpt, cells were mock infected or infected with PIV5-GFP at a high MOI and immediately replaced with media supplemented with 8o. Total RNA was collected at 2, 5, and 10 hpi and used in RT-qPCR assays to measure levels of the PIV5 genes: fusion (F) protein, hemagglutinin-neuraminidase (HN) protein, and nucleocapsid (NP) protein. Collection at various time points allows one to kinetically distinguish between the chalcone-mediated inhibition of early and late viral gene expression. Values were normalized to actin and were set relative to the DMSO-treated control of each corresponding time point.
# [2] = tested on: PIV5-GFP; assay: Western blotting for PIV5 NP and P proteins in infected Hs27 cells; assay type: cell-based, parainfluenza virus 5; conditions: 10 µM before and after infection; high MOI; lysates at 24 hpi
# Excerpt: Hs27 (human skin fibroblast) cells cultured in 6-well dishes were lysed using protein lysis buffer. Cell lysates were resolved on 12% sodium dodecyl sulfate-polyacrylamide gel electrophoresis (SDS-PAGE) gels and transferred to nitrocellulose membranes (Bio-Rad, Hercules, CA, USA). After normalizing samples via western blotting for β-actin (1:20,000 dilution, catalog number A5316, Sigma-Aldrich, St. Louis, MO, USA), samples were probed with rabbit polyclonal antibodies for the PIV5 NP (1:2000) and P proteins (1:2000). Blots were visualized using anti-mouse horseradish peroxidase (HRP)-conjugated antibodies (Sigma-Aldrich) and chemiluminescence (Thermo Fisher Scientific).
# The above experiments utilized GFP expression and flow cytometry as an assay for observing the effects of chalcones on viral protein expression. To extend this analysis to bona fide viral proteins, cells were left untreated, DMSO-treated, or treated with the chalcone 8o at 10 μM for 24 h. Cells were then infected with PIV5-GFP at a high MOI and then cultured in control media or media supplemented with 8o.
# [3] = tested on: human cytomegalovirus (HCMV); set-up: method as in PMID 23768434; conditions: cited from earlier work
# [4] = tested on: human immunodeficiency virus (HIV); set-up: method as in PMID 27161874; conditions: cited from earlier work
structure (smiles),measurement,setting,value
CCOc1ccc(Br)cc1/C=C/C(=O)c1c(O)cccc1OCc1ccccc1 [Chalcone 8o],"Viral gene expression (F, HN, NP) vs DMSO-treated control at 2 hpi",[1],minimal differences
same,Reduction in viral gene expression at 5 hpi,[1]; relative to DMSO,~ 5 fold
same,Reduction in viral gene expression at 10 hpi,[1]; relative to DMSO,greater than 100 fold
same,PIV5 NP and P viral protein levels,[2],very little viral protein
same,Antiviral activity against HCMV,[3],had efficacy as an antiviral agent
same,Antiviral activity against HIV,[4],had efficacy as an antiviral agent
